From patent US6677316B2, “Adenosine derivatives and methods of administration” (SmithKline Beecham Corporation, priority 1998, dated 2004)

Columns and labels:
[1] = target: T1, human adenosine A1 receptor (Homo sapiens, UniProt P30542); test: Reporter gene assay (CRE/SPAP) in CHO cells, agonist potency relative to NECA, adenosine A1 receptor; type: cell-based; parameters: key: equipotent concentration ratio, NECA = 1; conditions: ECR = equipotent concentration ratio relative to NECA = 1, inhibition of forskolin-stimulated SPAP production
T1 construct: expressed in transfected cells; host or cells: Chinese hamster ovary (CHO) cells with CRE/SPAP/HYG reporter elements
T1 sequence (P30542 1-326): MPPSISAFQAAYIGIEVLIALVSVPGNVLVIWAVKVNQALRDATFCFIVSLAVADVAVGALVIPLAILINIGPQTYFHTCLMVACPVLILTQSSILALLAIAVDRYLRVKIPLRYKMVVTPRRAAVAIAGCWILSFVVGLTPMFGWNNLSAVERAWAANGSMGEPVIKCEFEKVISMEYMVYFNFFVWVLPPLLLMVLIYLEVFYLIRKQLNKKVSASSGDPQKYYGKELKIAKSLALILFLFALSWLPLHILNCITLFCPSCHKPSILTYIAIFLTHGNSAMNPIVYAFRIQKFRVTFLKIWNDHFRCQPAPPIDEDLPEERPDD
Procedure: (§1) Reporter Gene Experiments
(§2) Agonist activity was measured in Chinese hamster ovary (CHO) cells containing the CRE/SPAP/HYG (CRE=cyclic AMP response element; HYG=hygromycin resistance; SPAP=secreted placental alkaline phosphatase) reporter gene elements, which upon stimulation of cAMP levels produced SPAP. A cell line was used, which was stably transfected with either the human adenosine A1 receptor or the human adenosine A3 receptor in addition to the above elements. Cells were plated out in 96-well plates in culture medium and incubated at 37° C. for 1 hour. For measurement of potency, agonists were added to the appropriate wells at a concentration range of approximately 10^−10- 10^−5M. 15Min later, cAMP levels were stimulated by addition of a maximal concentration of forskolin. All cells were then incubated for a further 5 hours at 37° C., and cooled to room temperature, after which a substrate for the phosphatase (para-nitrophenol phosphate, pNPP), which is converted by SPAP to a coloured reagent) was then added and the 96-well -plates were read in a plate reader. From these readings, the concentration-dependence of the inhibition by the agonist for forskolin-stimulated SPAP production can be calculated. One of the agonists tested on each 96-well plate was the standard non-selective agonist, N-ethylcarboxamidoadenosine (NECA), and the potency of all test agonists is expressed relative to that of the NECA standard.
(§3) (ECR=equipotent concentration ratio relative to NECA=1)

[2] = target: T2, human adenosine A3 receptor (Homo sapiens, UniProt P0DMS8); test: Reporter gene assay (CRE/SPAP) in CHO cells, agonist potency relative to NECA, adenosine A3 receptor; type: cell-based; parameters: key: equipotent concentration ratio, NECA = 1; conditions: ECR = equipotent concentration ratio relative to NECA = 1, inhibition of forskolin-stimulated SPAP production
T2 construct: expressed in transfected cells; host or cells: Chinese hamster ovary (CHO) cells with CRE/SPAP/HYG reporter elements
T2 sequence (P0DMS8 1-318): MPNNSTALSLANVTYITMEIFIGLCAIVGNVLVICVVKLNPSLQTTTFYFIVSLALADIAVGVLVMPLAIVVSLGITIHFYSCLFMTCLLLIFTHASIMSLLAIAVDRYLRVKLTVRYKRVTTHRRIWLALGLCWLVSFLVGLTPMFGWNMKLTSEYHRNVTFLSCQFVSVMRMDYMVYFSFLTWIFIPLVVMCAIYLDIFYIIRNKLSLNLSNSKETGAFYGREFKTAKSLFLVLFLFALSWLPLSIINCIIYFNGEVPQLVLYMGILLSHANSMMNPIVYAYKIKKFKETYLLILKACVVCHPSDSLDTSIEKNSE
Procedure: as §1, §2, §3

Structure (SMILES) | Adenosine A1 receptor ECR* [1] | Adenosine A3 receptor ECR* [2]
CC(C)(C)c1noc([C@H]2O[C@@H](n3cnc4c(NCC5CC5)ncnc43)[C@H](O)[C@@H]2O)n1 [Example 44, (2S,3S,4 R,5R)-2-[3-(tert-butyl)-1,2,4-oxadiazol-5-yl]-5-{6-[(cyclopropylmethyl)amino]-9H-purin-9-yl}tetrahydrofuran-3,4-diol] | 7.68 | 165.54
CC(C)CNc1ncnc2c1ncn2[C@@H]1O[C@H](c2nc(C(C)(C)C)no2)[C@@H](O)[C@H]1O [Example 45, (2S,3S,4R,5R)-2-[3-(tert-butyl)-1,2,4-oxadiazol-5-yl]-5-[6-(isobutylamino)-9H-purin-9-yl]tetrahydrofuran-3,4-diol] | 7.36 | 165.54
CC(C)c1noc([C@H]2O[C@@H](n3cnc4c(NC5CC5)ncnc43)[C@H](O)[C@@H]2O)n1 [Example 51, (2R,3R,4S,5S)-2-[6-(cyclopropylamino)-9H-purin-9-yl]-5-(3-isopropyl-1,2,4-oxadiazol-5-yl)tetrahydrofuran-3,4-diol] | 7.56 | 587.75
CNS(=O)(=O)CCNc1ncnc2c1ncn2[C@@H]1O[C@H](c2nc(C(C)C)no2)[C@@H](O)[C@H]1O [Example 54, 2-({9-[(2R,3R,4S,5S)-3,4-dihydroxy-5-(3-isopropyl-1,2,4-oxadiazol-5-yl)tetrahydrofuran-2-yl]-9H-purin-6-yl}amino)-N-methylethanesulfonamide] | 20.78 | 715.31
CC(C)c1noc([C@H]2O[C@@H](n3cnc4c(Nc5ccc(F)c(F)c5)ncnc43)[C@H](O)[C@@H]2O)n1 [Example 56, (2R,3R,4S,5S)-2-[6-(3,4-difluoroanilino)-9H-purin-9-yl]-5-(3-isopropyl-1,2,4-oxadiazol-5-yl)tetrahydrofuran-3,4-diol] | 15.96 | 717.99
O[C@@H]1[C@H](O)[C@@H](c2nc(C3CC3)no2)O[C@H]1n1cnc2c(Nc3ccc(Cl)cc3F)ncnc21 [Example 62, (2R,3R,4S,5S)-2-[6-(4-chloro-2-fluoroanilino)-9H-purin-9-yl]-5-(3-cyclopropyl-1,2,4-oxadiazol-5-yl)tetrahydrofuran-3,4-diol] | 29.47 | 327
CC(C)(C)c1nnc([C@H]2O[C@@H](n3cnc4c(Nc5ccc(Cl)cc5F)ncnc43)[C@H](O)[C@@H]2O)[nH]1 [Example 67, (2R,3S,4 R,5 R)-2-[5-(tert-butyl)-4H-1,2,4-triazol-3-yl]-5-[6-(4-chloro-2-fluoroanilino)-9H-purin-9-yl]tetrahydrofuran-3,4-diol] | 9.8 | 827.66
CC(C)c1nnc([C@H]2O[C@@H](n3cnc4c(Nc5ccc(F)cc5Cl)ncnc43)[C@H](O)[C@@H]2O)[nH]1 [Example 68, (2R,3R,4S,5R)-2-[6-(2-chloro-4-fluoroanilino)-9H-purin-9-yl]-5-(5-isopropyl-4H-1,2,4-triazol-3-yl)tetrahydrofuran-3,4-diol] | 4.09 | 417.37
O[C@@H]1[C@H](O)[C@@H](c2nnc(C3CC3)o2)O[C@H]1n1cnc2c(NC3CCOCC3)ncnc21 [Example 108, (2S,3S,4R,5R)-2-(5-cyclopropyl-1,3,4-oxadiazol-2-yl)-5-[6-(tetrahydro-2H-pyran-4-ylamino)-9H-purin-9-yl]tetrahydrofuran-3,4-diol] | 1.52 | 254
CC(C)(C)c1nnc([C@H]2O[C@@H](n3cnc4c(Nc5ccc(F)cc5Cl)ncnc43)[C@H](O)[C@@H]2O)o1 [Example 116, (2S,3S,4R,5R)-2-[5-(tert-butyl)-1,3,4-oxadiazol-2-yl]-5-[6-(2-chloro-4-fluoroanilino)-9H-purin-9-yl]tetrahydrofuran-3,4-diol] | 27.26 | 955
CC(C)(C)c1cc([C@H]2O[C@@H](n3cnc4c(NC5CCS(=O)(=O)CC5)ncnc43)[C@H](O)[C@@H]2O)on1 [Example 119, (2S,3S,4 R,5R)-2-[3-(tert-butyl)isoxazol-5-yl]-5-{6-[(1,1-dioxidotetrahydro-2H-thiopyran-4-yl)amino]-9H-purin-9-yl}tetrahydrofuran-3,4-diol] | 2.83 | 154
CCNS(=O)(=O)CCNc1ncnc2c1ncn2[C@@H]1O[C@H](c2nnc(C(C)(C)C)o2)[C@@H](O)[C@H]1O [Example 123, 2-[(9-{(2R,3 R,4S,5S)-5-[5-(tert-butyl)-1,3,4-oxadiazol-2-yl]-3,4-dihydroxytetrahydrofuran-2-yl}-9H-purin-6-yl)amino]-N-ethylethanesulfonamide] | 4.19 | 325.44
CNS(=O)(=O)CCNc1ncnc2c1ncn2[C@@H]1O[C@H](c2ncc(C)o2)[C@@H](O)[C@H]1O [Example 127, 2-({9-[(2R,3R,4S,5S)-3,4-dihydroxy-5-(5-methyl-1,3-oxazol-2-yl)tetrahydrofuran-2-yl]-9H-purin-6-yl}amino)-N-methylethanesulfonamide] | 0.21 | 21.62
COCc1noc([C@H]2O[C@@H](n3cnc4c(NC5CCCC5)ncnc43)[C@H](O)[C@@H]2O)n1 [Example 129, (2R,3R,4S,5S)-2-[6-(cyclopentylamino)-9H-purin-9-yl]-5-[3-(methoxymethyl)-1,2,4-oxadiazol-5-yl]tetrahydrofuran-3,4-diol] | 15.5 | >199
CCc1nnc([C@H]2O[C@@H](n3cnc4c(NC(C)C)ncnc43)[C@H](O)[C@@H]2O)o1 [Example 131, (2S,3S,4R,5R)-2-(5-ethyl-1,3,4-oxadiazol-2-yl)-5-[6-(isopropylamino)-9H-purin-9-yl]tetrahydrofuran-3,4-diol] | 0.15 | 199.01
Cc1nnc([C@H]2O[C@@H](n3cnc4c(N[C@H]5CCC[C@@H]5O)ncnc43)[C@H](O)[C@@H]2O)o1 [Example 132, (2R,3R,4S,5S)-2-(6-{[(1 S,2S)-2-hydroxycyclopentyl]amino}-9H-purin-9-yl)-5-(5-methyl-1,3,4-oxadiazol-2-yl)tetrahydrofuran-3,4-diol] | 0.53 | >22.4
CCC(CC)Nc1nc(Cl)nc2c1ncn2[C@@H]1O[C@H](c2nc(C3CC3)no2)[C@@H](O)[C@H]1O.O=CO.O=CO [Example 133, (2R,3R,4S,5S)-2-{2-chloro-6-[(1-ethylpropyl)amino]-9H-purin-9-yl}-5-(3-cyclopropyl-1,2,4-oxadiazol-5-yl)tetrahydrofuran-3,4-diol formate (1:2)] | 25.47 | 466.92
CC(C)(C)c1nnc([C@H]2O[C@@H](n3cnc4c(NC5CCOCC5)ncnc43)[C@H](O)[C@@H]2O)[nH]1 [Example 139, (2R,3S,4R,5R)-2-[5-(tert-butyl)-4H-1,2,4-triazol-3-yl]-5-[6-(tetrahydro-2H-pyran-4-ylamino)-9H-purin-9-yl]tetrahydrofuran-3,4-diol] | 10.64 | 228
